Converted amounts (≈) assume the structure as drawn.
Experiments:
Type in all cases: functional
[1] = test system: Staphylococcus aureus; assay: Antibacterial activity against methicillin resistant Staphylococcus aureus […] after 18 hrs by serial agar dilution method
[2] = Antibacterial activity against Photobacterium damselae subsp. piscicida after 18 hrs by serial agar dilution method
[3] = test system: Bacillus subtilis; assay: Antibacterial activity against Bacillus subtilis after 18 hrs by serial agar dilution method
[4] = test system: Staphylococcus aureus; assay: Antibacterial activity against Staphylococcus aureus after 18 hrs by serial agar dilution method
[5] = test system: Micrococcus luteus; assay: Antibacterial activity against Micrococcus luteus after 18 hrs by serial agar dilution method
[6] = test system: Staphylococcus aureus; assay: Antibacterial activity against […] Staphylococcus aureus ATCC 25923 after 18 hrs by serial agar dilution method; details: ATCC 25923, 18 h

C[C@@H]1[C@@H]2OC3=C(C(=O)OC3CSCCO)C(=O)[C@@]1(C)[C@@H]1CCCC[C@@]1(O)[C@@H]2O (some centres undefined)
MIC [1]: 25 µg/mL | MIC [2]: 6.25 µg/mL (≈ 15.2 µM)

C=C1OC(=O)C2=C1O[C@@H]1[C@@H](O)[C@]3(O)CCCC[C@H]3[C@](C)(C2=O)[C@@H]1C
MIC [3]: 18.7 to 37.4 µM (≈ 6.25 to 12.5 µg/mL) | MIC [1]: 18.7 to 37.4 µM | MIC [4]: 18.7 to 37.4 µM (≈ 6.25 to 12.5 µg/mL) | MIC [2]: 1.56 to 18.7 µg/mL (≈ 4.67 to 55.9 µM) | MIC [5]: 18.7 to 37.4 µM (≈ 6.25 to 12.5 µg/mL)

C=C1OC(=O)C2=C1O[C@H]1C[C@](C)(CC(O)C1OC(=O)c1ccc3ccccc3c1)C2=O (some centres undefined)
MIC [6]: 8 µg/mL (≈ 19 µM)

C=C1OC(=O)C2=C1O[C@@H]1C=CC[C@@](C)(C1)C2=O
MIC [6]: 4 µg/mL (≈ 17.2 µM)

CC(=O)NCCCSCC1OC(=O)C2=C1O[C@@H]1[C@@H](O)[C@]3(O)CCCC[C@H]3[C@](C)(C2=O)[C@@H]1C (some centres undefined)
MIC [1]: 12.5 µg/mL | MIC [2]: 6.25 µg/mL (≈ 13.4 µM)

C[C@@H]1[C@@H]2OC3=C(C(=O)OC3(Br)CBr)C(=O)[C@@]1(C)[C@@H]1CCCC[C@@]1(O)[C@@H]2O (some centres undefined)
MIC [1]: > 100 µg/mL | MIC [2]: 12.5 µg/mL (≈ 25.3 µM)

C=C1OC(=O)C2=C1O[C@H]1C[C@](C)(CC(O)C1O)C2=O (some centres undefined)
MIC [6]: > 128 µg/mL

C=C1OC(=O)C2=C1O[C@@H]1[C@@H](OC(=O)c3ccc4ccccc4c3)[C@]3(O)CCCC[C@H]3[C@](C)(C2=O)[C@@H]1C
MIC [1]: 1.61 µM | MIC [2]: > 100 µg/mL

C=C1OC(=O)C2=C1O[C@H]1C[C@](C)(CC(OC(=O)c3ccc4ccccc4c3)C1O)C2=O (some centres undefined)
MIC [6]: 128 µg/mL (≈ 304 µM)

CC1OC(=O)C2=C1O[C@@H]1[C@@H](O)[C@]3(O)CCCC[C@H]3[C@](C)(C2=O)[C@@H]1C (some centres undefined)
MIC [1]: > 100 µg/mL | MIC [2]: 50 µg/mL (≈ 149 µM)

— ChEMBL document CHEMBL3864124, “Tetrodecamycin: An unusual and interesting tetronate antibiotic” (2016)
